Like-named read-outs stand apart in the source and are kept apart here.
Legend:
Format in all cases: cell-based
BHK-21 cells = assay: Anti-fibrosis activity test: inhibition of BHK-21 cell proliferation (CCK-8); conditions: Mesocricetus auratus, BHK-21, 48 h
Outline: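 Cells seeded at 2×10^4 cells/mL, allowed to adhere 24 hours, then exposed to graded compound concentrations in triplicate for 48 hours at 37° C, 5% CO2. CCK-8 added for 2 hours, absorbance read at 450 nm; inhibition versus blank control used to derive IC50. Pirfenidone served as positive control.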

[1] = system: human lung fibroblasts HFL1; assay: Anti-fibrosis activity test: inhibition of proliferation of human lung fibroblasts HFL1 (CCK-8); conditions: Homo sapiens, HFL1, 48 h
Outline: (§1)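 Proliferation read by CCK-8 (2 h, A450) after 48 h compound treatment of cells plated at 2×10^4 cells/mL and allowed 24 h attachment, triplicate per concentration. Inhibition rate derived from absorbance relative to untreated blank, with IC50 fitted; pirfenidone as positive control.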

[2] = system: human hepatic stellate cells LX-2; assay: Anti-fibrosis activity test: inhibition of proliferation of human hepatic stellate cells LX-2 (CCK-8); conditions: Homo sapiens, 48 h
Outline: as §1

[3] = system: human fibrosarcoma cells HT-1080; assay: Anti-fibrosis activity test: inhibition of proliferation of human fibrosarcoma cells HT-1080 (CCK-8); conditions: Homo sapiens, HT-1080, 48 h
Outline: as §1

[4] = system: human dermal fibroblasts CCC-ESF-1; assay: Anti-fibrosis activity test: inhibition of proliferation of human dermal fibroblasts CCC-ESF-1 (CCK-8); conditions: Fibroblast
Outline: as §1

[5] = system: human embryonic lung fibroblast IMR-90; assay: Anti-fibrosis activity test: inhibition of proliferation of human embryonic lung fibroblast IMR-90 (CCK-8)
Outline: as §1

[6] = system: cardiac fibroblast RAT-iCell-C002; assay: Anti-fibrosis activity test: inhibition of proliferation of cardiac fibroblast RAT-iCell-C002 (CCK-8); conditions: Cardiac fibroblast, 48 h
Outline: as §1

NF-κB = assay: Immunological activity test: inhibition of NF-κB activity; conditions: initial concentration of 30 μM; a/b isomers given as first/second symbol; read-out: IC50 (μM), inhibitory activity against NF-κB
Source text: Main references for immunological activity test of the compounds of the present application includes: Vogl, S.; Atanasov, A. G.; Binder, M.; Bulusu, M.; Zehl, M.; Fakhrudin, N.; Heiss, E. H.; Picker, P.; Wawrosch, C.; Saukel, J.; Reznicek, G.; Urban, E.; Bochkov, V.; Dirsch, V. M.; Kopp, B. J. Evid-Based Complementary Alern. Med. 2013, ID 395316. Commercially available parthenolide was utilized as a positive control.
The ability of the compounds of the present application to inhibit NF-κB activity was tested at an initial concentration of 30 μM.
The assay data for the compounds of the present application were further analyzed to determine their IC50 values.

[7] = system: mouse macrophages (RAW264.7); assay: Lipopolysaccharide-induced NO secretion in macrophages (Griess); conditions: RAW264.7, LPS 1 μg/ml, a/b isomers given as first/second symbol, read-out: IC50 (μM), inhibition of lipopolysaccharide-induced NO secretion in macrophages
Outline: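 Percent inhibition of NO release was measured by Griess absorbance at 548 nm in supernatants. Cells were mouse RAW264.7 macrophages in 10% FBS DMEM, treated with graded compound concentrations and activated by LPS (1 μg/ml) for 24 h.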

[8] = Homo sapiens, CCC-ESF-1 cells, 48 h, CCK-8
[9] = Homo sapiens, IMR-90 cells, 48 h, CCK-8
[10] = CCK-8, 48 hours after administration
[11] = human lung fibroblasts HFL1, CCK-8, 48 hours
[12] = human hepatic stellate cells LX-2, CCK-8, 48 hours
[13] = human fibrosarcoma cells HT-1080, CCK-8, 48 hours
[14] = human dermal fibroblasts CCC-ESF-1, CCK-8, 48 hours
[15] = human embryonic lung fibroblast IMR-90, CCK-8, 48 hours
[16] = cardiac fibroblast RAT-iCell-C002, CCK-8, 48 hours

Row | Structure (SMILES) | IC50 (BHK-21 cells; 48 h, CCK-8) [mM] | IC50 ([1]; HFL1 cells, 48 h, CCK-8) [mM] | IC50 ([2]; LX-2, 48 h, LX-2 cells, CCK-8) [mM] | IC50 ([3]; HT-1080 cells, 48 h, CCK-8) [mM] | IC50 [4, 8] [mM] | IC50 [5, 9] [mM] | IC50 ([6]; RAT-iCell-C002 cells, CCK-8) [mM] | IC50 (NF-κB) [µM] | IC50 ([7]; Mus musculus, RAW264.7, 24 h) [µM] | IC50 ([7]; 24 hours) [µM] | IC50 (BHK-21 cells; [10]) [mM] | IC50 [1, 11] [mM] | IC50 [2, 12] [mM] | IC50 [3, 13] [mM] | IC50 [4, 14] [mM] | IC50 [5, 15] [mM] | IC50 [6, 16] [mM]
1 | Cc1cccc2nc3c(c(O)c12)C(=O)n1cccc1-3 [Compound 678b, 9-hydroxy-8-methyl-10H-pyrrolizino[1,2-b]quinolin-10-one] | 0.05 to 5 | 0.05 to 5 | 0.05 to 5 | 0.05 to 5 | 0.05 to 5 | 0.05 to 5 | 0.05 to 5 | 1 to 10 | 1 to 10 | – | – | – | – | – | – | – | –
2 | O=C1c2c(nc3ccccc3c2OCc2ccc(-c3ccccc3)cc2)-c2cccn21 [Compound 674b] | – | – | – | – | – | – | – | 1 to 10 | – | 1 to 10 | – | – | – | – | – | – | –
3 | N#Cc1c(N2CCNCC2)ccc2c(OCc3ccc(F)cc3)c3c(nc12)-c1cccn1C3=O [Compound 486b, 9-((4-fluorobenzyl)oxy)-10-oxo-6-(piperazin-1-yl)-10H-pyrrolizino[1,2-b]quinoline-5-carbonitrile] | – | – | – | – | – | – | – | 1 to 10 | – | 1 to 10 | – | – | – | – | – | – | –
4 | N#Cc1c(N2CCNCC2)ccc2c(=O)c3c(n(Cc4ccc(F)cc4)c12)-c1cccn1C3=O [Compound 486a, 4-(4-Fluorobenzyl)-9,10-dioxo-6-(piperazin-1-yl)-4,10-dihydro-9H-pyrrolizino[1,2-b]quinoline-5-carbonitrile] | – | – | – | – | – | – | – | 10 to 50 | – | 0.1 to 1 | – | – | – | – | – | – | –
5 | Cc1ccc2c(=O)c3c([nH]c2c1)-c1cccn1C3=O [Compound 714a, 6-Methyl-9H-pyrrolizino[1,2-b]quinoline-9,10(4H)-dione] | 0.05 to 5 | 0.05 to 5 | 0.05 to 5 | 0.05 to 5 | 0.05 to 5 | 0.05 to 5 | 0.05 to 5 | 1 to 10 | – | – | – | – | – | – | – | – | –
6 | N#Cc1ccc(Cn2c3c(c(=O)c4cc(C#N)ccc42)C(=O)n2cccc2-3)cc1 [Compound 626a, 4-(4-Cyanobenzyl)-9,10-dioxo-4,10-dihydro-9H-pyrrolizino[1,2-b]quinoline-7-carbonitrile] | – | – | – | – | – | – | – | 1 to 10 | – | – | 0.05 to 5 | 0.05 to 5 | 0.05 to 5 | 0.05 to 5 | < 0.05 | 0.05 to 5 | 0.05 to 5
7 | N#Cc1ccc2c(OCc3ccc(F)cc3)c3c(nc2c1)-c1cccn1C3=O [Compound 514b, 9-((4-fluorobenzyl)oxy)-10-oxo-10H-pyrrolizino[1,2-b]quinoline-6-carbonitrile] | – | – | – | – | – | – | – | 1 to 10 | – | – | 0.05 to 5 | 0.05 to 5 | 0.05 to 5 | 0.05 to 5 | 0.05 to 5 | 0.05 to 5 | 0.05 to 5
8 | O=C1c2c(nc3ccc(F)cc3c2OCc2ccc(C(F)(F)F)cc2)-c2cccn21 [Compound 620b, 7-Fluoro-9-((4-(trifluoromethyl)benzyl)oxy)-10H-pyrrolizino[1,2-b]quinolin-10-one] | – | – | – | – | – | – | – | 1 to 10 | – | – | 0.05 to 5 | 0.05 to 5 | 0.05 to 5 | 0.05 to 5 | 5 to 20 | 0.05 to 5 | 0.05 to 5
9 | N#Cc1ccc2nc3c(c(OCc4ccc(C(F)(F)F)cc4)c2c1)C(=O)n1cccc1-3 [Compound 627b, 10-oxo-9-((4-(trifluoromethyl)benzyl)oxy)-10H-pyrrolizino[1,2-b]quinoline-7-carbonitrile] | – | – | – | – | – | – | – | 1 to 10 | – | – | 0.05 to 5 | 0.05 to 5 | 0.05 to 5 | 0.05 to 5 | 0.05 to 5 | 0.05 to 5 | 0.05 to 5
10 | O=C1c2c(n(Cc3cc(C(F)(F)F)cc(C(F)(F)F)c3)c3ccc(F)cc3c2=O)-c2cccn21 [Compound 623a, 4-(3,5-Bis(trifluoromethyl)benzyl)-7-fluoro-9H-pyrrolizino[1,2-b]quinoline-9,10(4H)-dione] | – | – | – | – | – | – | – | 1 to 10 | – | – | < 0.05 | 0.05 to 5 | 0.05 to 5 | 0.05 to 5 | < 0.05 | 0.05 to 5 | 0.05 to 5
11 | O=C1c2c(nc3cc(C(F)(F)F)ccc3c2OCc2cccc(Cl)c2)-c2cccn21 [Compound 545b, 9-((3-chlorobenzyl)oxy)-6-(trifluoromethyl)-10H-pyrrolizino[1,2-b]quinolin-10-one] | – | – | – | – | – | – | – | 1 to 10 | – | – | 0.05 to 5 | 0.05 to 5 | 0.05 to 5 | 0.05 to 5 | 0.05 to 5 | 0.05 to 5 | 0.05 to 5
12 | CC(C)CCOc1c2c(nc3ccccc13)-c1cccn1C2=O [Compound 8b, 9-(isopentyloxy)-10H-pyrrolizino[1,2-b]quinolin-10-one] | – | – | – | – | – | – | – | 10 to 50 | – | – | 0.05 to 5 | 0.05 to 5 | 0.05 to 5 | 0.05 to 5 | 0.05 to 5 | 0.05 to 5 | 0.05 to 5
13 | CC(C)=CCOc1c2c(nc3ccccc13)-c1cccn1C2=O [Compound 9b, 9-((3-methylbut-2-en-1-yl)oxy)-10H-pyrrolizino[1,2-b]quinolin-10-one] | – | – | – | – | – | – | – | 1 to 10 | – | – | 5 to 20 | 0.05 to 5 | 0.05 to 5 | 0.05 to 5 | 5 to 20 | 0.05 to 5 | 0.05 to 5
14 | O=C1c2c(n(Cc3ccc(C(F)(F)F)cc3)c3ccc(F)cc3c2=O)-c2cccn21 [Compound 620a, 7-Fluoro-4-(4-(trifluoromethyl)benzyl)-9H-pyrrolizino[1,2-b]quinoline-9,10(4H)-dione] | – | – | – | – | – | – | – | 1 to 10 | – | – | < 0.05 | 0.05 to 5 | 0.05 to 5 | 0.05 to 5 | 5 to 20 | 0.05 to 5 | 0.05 to 5
15 | N#Cc1ccc2c(=O)c3c(n(Cc4ccccc4F)c2c1)-c1cccn1C3=O [Compound 516a, 4-(2-Fluorobenzyl)-9,10-dioxo-4,10-dihydro-9H-pyrrolizino[1,2-b]quinoline-6-carbonitrile] | – | – | – | – | – | – | – | 0.1 to 1 | – | – | < 0.05 | 0.05 to 5 | 0.05 to 5 | 0.05 to 5 | 0.05 to 5 | 0.05 to 5 | 0.05 to 5
16 | N#Cc1ccc2c(c1)c(=O)c1c(n2Cc2ccc(-c3ccccc3C#N)cc2)-c2cccn2C1=O [Compound 629a, 4-((2′-Cyano-[1,1′-biphenyl]-4-yl)methyl)-9,10-dioxo-4,10-dihydro-9H-pyrrolizino[1,2-b]quinoline-7-carbonitrile] | – | – | – | – | – | – | – | 1 to 10 | – | – | < 0.05 | 0.05 to 5 | 0.05 to 5 | 0.05 to 5 | < 0.05 | 0.05 to 5 | 0.05 to 5
17 | N#Cc1ccc2nc3c(c(OCc4ccc(F)cc4)c2c1)C(=O)n1cccc1-3 [Compound 624b, 9-((4-fluorobenzyl)oxy)-10-oxo-10H-pyrrolizino[1,2-b]quinoline-7-carbonitrile] | – | – | – | – | – | – | – | 1 to 10 | – | – | 0.05 to 5 | < 0.05 | 5 to 20 | 0.05 to 5 | 0.05 to 5 | 0.05 to 5 | 0.05 to 5
18 | N#Cc1ccc2c(=O)c3c(n(Cc4cccc(F)c4)c2c1)-c1cccn1C3=O [Compound 515a, 4-(3-Fluorobenzyl)-9,10-dioxo-4,10-dihydro-9H-pyrrolizino[1,2-b]quinoline-6-carbonitrile] | – | – | – | – | – | – | – | 1 to 10 | – | – | 0.05 to 5 | 0.05 to 5 | 0.05 to 5 | 5 to 20 | 0.05 to 5 | 0.05 to 5 | 0.05 to 5
19 | N#Cc1ccc(COc2c3c(nc4ccc(C#N)cc24)-c2cccn2C3=O)cc1 [Compound 626b, 9-((4-cyanobenzyl)oxy)-10-oxo-10H-pyrrolizino[1,2-b]quinoline-7-carbonitrile] | – | – | – | – | – | – | – | 1 to 10 | – | – | 0.05 to 5 | 0.05 to 5 | 0.05 to 5 | 0.05 to 5 | < 0.05 | 0.05 to 5 | 0.05 to 5

— patent publication US11040028B2, “Penicinotam derivative, preparation method and use thereof” (OCEAN UNIVERSITY OF CHINA, priority 2017, dated 2021)
